# In publication PMC9696794, “Synthesis and Antimicrobial Activity of Short Analogues of the Marine Antimicrobial Peptide Turgencin A: Effects of SAR Optimizations, Cys-Cys Cyclization and Lipopeptide Modifications” (International Journal of Molecular Sciences, 2022):
# Where a SMILES comes first, the peptide text is derived from it. The star is where a group is joined. Lauroyl = CCCCCCCCCCCC(=O)*; Decanoyl = CCCCCCCCCC(=O)*; Octanoyl = CCCCCCCC(=O)*
# Columns and labels:
# [1] = test system: B. subtilis (Bs, ATCC 23857); experiment: microbe, parasite or virus in culture; assay type: cell-based, Bacillus subtilis; conditions: ATCC 23857, 24 h
# Procedure: (§1) All cyclic and linear peptides were screened for antibacterial activity against four Gram-positive strains: B. subtilis (Bs, ATCC 23857), C. glutamicum (Cg, ATCC 13032), S. aureus (Sa, ATCC 9144) and S. epidermidis RP62A (Se, ATCC 35984), and two Gram-negative strains: E. coli (Ec, ATCC 25922) and P. aeruginosa (Pa, ATCC 27853). The activity was assessed using a broth microdilution assay according to a modified CLSI-based method. Briefly, overnight bacterial cultures were grown in Mueller–Hinton (MH) broth medium (Difco Laboratories, Detroit, MI, USA) for 2 h at room temperature. The optical density (OD600) was measured, and the bacterial suspensions were adjusted to 2.5–3 × 10^4 CFU/mL in MH medium. The bacterial suspension (50 µL) was distributed in 96-well plates (Nunc, Roskilde, Denmark) preloaded with two-fold dilution series (256 to 1 µg/mL) of peptide solutions (50 µL), giving a final well volume of 100 µL. The microplates were incubated in an EnVision 2103 microplate reader (PerkinElmer, Llantrisant, UK) at 35 °C, with OD595 recorded every hour for 24 h. MIC was defined as the lowest concentration of peptides showing an optical density less than 10% of the negative (growth) control, consisting of bacterial suspension and water. Polymyxin B sulfate (Sigma-Aldrich, St. Louis, MO, USA) and chlorhexidine acetate (CHX, Fresenius Kabi, Halden, Norway), both with concentrations ranging from 12.5 to 0.09 μg/mL, served as positive (growth inhibition) controls. All peptides were tested in triplicate.
# [2] = test system: C. glutamicum (Cg, ATCC 13032); experiment: microbe, parasite or virus in culture; assay type: cell-based, Corynebacterium glutamicum; conditions: ATCC 13032, 24 h
# Procedure: as §1
# [3] = test system: S. aureus (Sa, ATCC 9144); experiment: microbe, parasite or virus in culture; assay type: cell-based, Staphylococcus aureus; conditions: ATCC 9144, 24 h
# Procedure: as §1
# [4] = test system: S. epidermidis RP62A (Se, ATCC 35984); experiment: microbe, parasite or virus in culture; assay type: cell-based, Staphylococcus epidermidis; conditions: ATCC 35984, 24 h
# Procedure: as §1
# E. coli (Ec, ATCC 25922) = experiment: microbe, parasite or virus in culture; assay type: cell-based, Escherichia coli; conditions: ATCC 25922, 24 h
# Procedure: as §1
# [5] = test system: P. aeruginosa (Pa, ATCC 27853); experiment: microbe, parasite or virus in culture; assay type: cell-based, Pseudomonas aeruginosa; conditions: ATCC 27853, 24 h
# Procedure: as §1
# all bacterial strains = experiment: Antibacterial MIC assay, all bacterial strains together (range or geometric mean); assay type: cell-based; conditions: for GM (geometric mean of the MIC values against all bacterial strains): Table 1, six bacterial strains; for GM of MIC Tot. bact.: Table S3, all bacterial test strains, MIC >256 set to 256
# Procedure: The selectivity index (SI) of the peptides towards bacteria over eukaryotic cells was calculated using the geometric mean (GM) of the MIC values against all bacterial test strains, according to the method by Orlov et al.. The SI for each peptide was determined as the ratio of the RBC-EC50 value by the corresponding GM value. Larger SI values indicate greater selectivity for microbial cells. […] In general, the SI was higher against the Gram-positive bacteral strains than the Gram-negative strains. (Table S3). Overall, peptides displaying EC50 < 100 µg/mL were considered too haemolytic to be of interest for further exploration.
# as §1
# A. pullulans (Ap) = experiment: microbe, parasite or virus in culture; assay type: cell-based, Aurobasidium pollulans; conditions: 48 h
# Procedure: (§2) The synthesized peptides were screened for antifungal activity against the molds A. pullulans (Ap) and Rhodotorula sp. (Rh) (both obtained from Professor Arne Tronsmo, The Norwegian University of Life Sciences, Ås, Norway) and the yeast C. albicans (Ca, ATCC 10231) as previously described. In short, fungal spores were grown in potato dextrose broth media (Difco) containing 2% D(+)-glucose (Merck, Darmstadt, Germany) at 25–30 °C while shaking at 200 rpm overnight. The cultures were diluted with a dextrose media containing glucose to a concentration of approx. 4 × 10^5 spores/mL. Aliquots of the cultures (50 µL) were transferred to 96 well microtiter plates preloaded with the synthetic peptides (50 µL) in two-fold serial dilutions (256 to 1 µg/mL). Polymyxin B and CHX (both with concentrations ranging from 12.5 to 0.09 μg/mL) served as positive antibiotic controls. The microtiter plates containing the fungal spores and the test peptides were incubated at room temperature for 48 h and OD600 was recorded using a Synergy H1 Hybrid microplate reader system (BioTek, Winooski, VT, USA). MIC was defined as the lowest peptide concentration showing an optical density less than 10% of the negative (growth) control. All experiments were performed in triplicate.
# [6] = test system: C. albicans (Ca, ATCC 10231); experiment: microbe, parasite or virus in culture; assay type: cell-based, Candida albicans; conditions: ATCC 10231, 48 h
# Procedure: as §2
# Rhodotorula sp. (Rh) = experiment: microbe, parasite or virus in culture; assay type: cell-based; conditions: 48 h
# Procedure: as §2
# [7] = test system: human red blood cells (RBC); experiment: Haemolytic activity assay; assay type: cell-based; conditions: for Selectivity index (SI) G-: EC50/GM of Gram-negative strains; for Selectivity index (SI) G+: EC50/GM of Gram-positive strains; for Selectivity index (SI) Fungi: EC50/GM of fungi; for SI (selectivity index = EC50/GM): haemolytic EC50 over GM of MIC against all bacterial strains, Table 1; for RBC Tox. (EC50), haemolytic activity: human RBC, 1 h, 37 °C, concentration giving 50% haemolysis
# Procedure: The synthetized lipopeptides were screened for haemolytic activity against human red blood cells (RBC), in concentrations ranging from 500 to 3.9 μM, following a previously described protocol. In brief, haemolysis was determined using a heparinizied (10 IU/mL) fraction of freshly drawn human blood. A second fraction of blood, which was collected in test tubes containing ethylenediaminetetraacetic acid (EDTA, Vacutest, KIMA, Arzergrande, Italy), was used for determination of the hematocrit (hct). Plasma was removed from heparinized blood by washing three times with prewarmed phosphate-buffered saline (PBS) before being adjusted to a hematocrit of 4%. Peptides dissolved in dimethyl sulfoxide (DMSO) were further diluted with PBS to a final DMSO content of ≤1%. Triton X-100 (Sigma-Aldrich, St. Louis, MO, USA), used at a final concentration of 0.1%, served as a positive control for 100% haemolysis, whereas 1% DMSO in PBS buffer served as a negative control where no toxicity was detected. Duplicates of test solutions and erythrocytes, with 1% hct final concentration, were prepared in a 96-well polypropylene V-bottom plate (Nunc, Fischer scientific, Oslo, Norway). They were incubated under agitation at 37 °C and 800 rpm for 1 h. After centrifugation (5 min, 3000× g), 100 µL from each well were transferred to a flat-bottomed 96-well plate and absorbance was measured at 545 nm with a microplate reader (SpectraMax 190, Molecular Devices, San Jose, CA, USA). After subtracting PBS background, the percentage of haemolysis was calculated as the ratio of the absorbance in the peptide-treated and surfactant-treated samples. Three independent experiments were performed, and EC50 (the concentration giving 50% haemolysis) values are presented as averages.
# [8] = test system: Gram-positive bacterial strains; conditions: Table S3; MIC >256 set to 256
# Procedure: as §1
# [9] = test system: Gram-negative bacterial strains (E. coli and P. aeruginosa); experiment: Antibacterial MIC assay, Gram-negative strains together (range or geometric mean); assay type: cell-based; conditions: Table S3; MIC >256 set to 256
# Procedure: as §1
# [10] = test system: fungi (A. pullulans, C. albicans, Rhodotorula sp.); experiment: Antifungal MIC assay, all fungi together (range or geometric mean); assay type: cell-based; conditions: Table S3; MIC >128 set to 128
# Procedure: as §2
# [11] = Table S3, highest tested concentration used where EC50 above it
SMILES,Antimicrobial Activity (MIC) Gram + Bs [1],Antimicrobial Activity (MIC) Gram + Cg [2],Antimicrobial Activity (MIC) Gram + Sa [3],Antimicrobial Activity (MIC) Gram + Se [4],"Antimicrobial Activity (MIC) Gram − Ec (E. coli (Ec, ATCC 25922))",Antimicrobial Activity (MIC) Gram − Pa [5],GM (geometric mean of the MIC values against all bacterial strains) (all bacterial strains),GM of MIC Tot. bact. (all bacterial strains),Antimicrobial Activity (MIC) Fungi Ap (A. pullulans (Ap)),Antimicrobial Activity (MIC) Fungi Ca [6],Antimicrobial Activity (MIC) Fungi Rh (Rhodotorula sp. (Rh)),"Selectivity index (SI) G- [7, 11]","Selectivity index (SI) G+ [7, 11]","Selectivity index (SI) Fungi [7, 11]",SI (selectivity index = EC50/GM) [7],"RBC Tox. (EC50), haemolytic activity [7]",GM of MIC G+ [8],GM of MIC G- [9],GM of MIC Fungi [10],"Selectivity index (SI) Tot. bact. ([7]; Table S3, EC50/GM of all bacterial strains, highest tested concentration used where EC50 above it)"
"CCCCCCCC(=O)N[C@@H](CS)C(=O)NCC(=O)N[C@@H](CCCCN)C(=O)N[C@@H](CCCCN)C(=O)N1CCC[C@H]1C(=O)NCC(=O)NCC(=O)N[C@@H](Cc1c[nH]c2ccccc12)C(=O)N[C@@H](CCCCN)C(=O)N[C@@H](CS)C(=O)N[C@@H](CCCCN)C(=O)N[C@@H](CC(C)C)C(N)=O [Peptide C8-Turg-1, C8- CGKKPGGWKC KL-NH2] (Octanoyl-CGKKPGGWKCKL-NH2)",8 µg/mL,4 µg/mL,128 µg/mL,32 µg/mL,32 µg/mL,128 µg/mL,29 µg/mL,29 µg/mL,32 µg/mL,128 µg/mL,16 µg/mL,> 15,> 50,> 23,>33,>943 µg/mL,19 µg/mL,64 µg/mL,40 µg/mL,
"CCCCCCCC(=O)N[C@@H](CS)C(=O)NCC(=O)N[C@@H](CCCNC(=N)N)C(=O)N[C@@H](CCCNC(=N)N)C(=O)N[C@@H](Cc1c[nH]c2ccccc12)C(=O)NCC(=O)N[C@@H](Cc1c[nH]c2ccccc12)C(=O)N[C@@H](Cc1c[nH]c2ccccc12)C(=O)N[C@@H](CCCNC(=N)N)C(=O)N[C@@H](CS)C(=O)N[C@@H](CCCNC(=N)N)C(=O)N[C@@H](CC(C)C)C(N)=O [Peptide C8-Turg-6, C8- CGRRWGWWRC RL-NH2] (Octanoyl-CGRRWGWWRCRL-NH2)",4 µg/mL,4 µg/mL,16 µg/mL,8 µg/mL,8 µg/mL,32 µg/mL,9 µg/mL,9 µg/mL,128 µg/mL,64 µg/mL,128 µg/mL,3,8,1,6,54 µg/mL,7 µg/mL,16 µg/mL,102 µg/mL,
"CCCCCCCCCCCC(=O)N[C@@H](CS)C(=O)NCC(=O)N[C@@H](CCCNC(=N)N)C(=O)N[C@@H](CCCNC(=N)N)C(=O)N[C@@H](Cc1c[nH]c2ccccc12)C(=O)NCC(=O)N[C@@H](Cc1c[nH]c2ccccc12)C(=O)N[C@@H](Cc1c[nH]c2ccccc12)C(=O)N[C@@H](CCCNC(=N)N)C(=O)N[C@@H](CS)C(=O)N[C@@H](CCCNC(=N)N)C(=O)N[C@@H](CC(C)C)C(N)=O [Peptide C12-Turg-6, C12- CGRRWGWWRC RL-NH2] (Lauroyl-CGRRWGWWRCRL-NH2)",16 µg/mL,16 µg/mL,,16 µg/mL,,,32 µg/mL,32 µg/mL,128 µg/mL,64 µg/mL,>128 µg/mL,,2,,1,39 µg/mL,19 µg/mL,,,
"CCCCCCCCCC(=O)N[C@@H](CS)C(=O)NCC(=O)N[C@@H](CCCNC(=N)N)C(=O)N[C@@H](CCCNC(=N)N)C(=O)N[C@@H](Cc1c[nH]c2ccccc12)C(=O)NCC(=O)N[C@@H](Cc1c[nH]c2ccccc12)C(=O)N[C@@H](Cc1c[nH]c2ccccc12)C(=O)N[C@@H](CCCNC(=N)N)C(=O)N[C@@H](CS)C(=O)N[C@@H](CCCNC(=N)N)C(=O)N[C@@H](CC(C)C)C(N)=O [Peptide C10-Turg-6, C10- CGRRWGWWRC RL-NH2] (Decanoyl-CGRRWGWWRCRL-NH2)",8 µg/mL,16 µg/mL,,16 µg/mL,,,23 µg/mL,23 µg/mL,128 µg/mL,64 µg/mL,128 µg/mL,,1,,,21 µg/mL,16 µg/mL,45 µg/mL,102 µg/mL,1
